Data on 11 molecules can be found in ChEMBL document CHEMBL1201862, “PubChem BioAssay data set” (2004).

Some test systems named below: 786-0; A549; BT-549; HCT-116; HT-29; Hs-578T; KM12; Malme-3M; OVCAR-3; OVCAR-5; PC-3; RPMI-8226; RXF 393; SK-MEL-5; SR; UACC-257; UACC-62; CCRF-CEM.
What all share (assay): inhibition of tumour cell growth, NCI panel, 48 h

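A five-concentration, 48-hour dose response in 96-well plates underlies each endpoint, interpolated linearly between surrounding concentrations. Here, GI50 denotes the concentration required for 50% inhibition of growth.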 Active and inactive are the calls of the source. Rule as the data show it: active = GI50 up to about 1.1 µM and inactive = higher. A value given as a limit tells only on which side of the number the result lay.

Take `NCCSCCc1ccccc1`: the GI50 in the experiment with 786-0, in the experiment on A549, in the experiment with BT-549, with HCT-116, with HT-29 and with Hs-578T was > 100 µM (inactive) in each case. Further, the GI50 with KM12 was > 100 µM (inactive); in the experiment with Malme-3M, > 100 µM (inactive); in the experiment with OVCAR-3, 68.2 µM (inactive); in the experiment with OVCAR-5 it was > 100 µM (inactive); in the experiment with PC-3 it was > 100 µM (inactive); in the experiment on RPMI-8226, 44 µM (inactive). Moreover, the GI50 with RXF 393 was > 100 µM (inactive); with SK-MEL-5, > 100 µM (inactive); in the experiment on SR it was 88.3 µM (inactive); in the experiment with UACC-257 it was > 100 µM (inactive); with UACC-62, > 100 µM (inactive).
As to `Sc1ncc2[nH]nnc2n1`, the GI50 in the experiment with 786-0, in the experiment with A549, in the experiment with BT-549, in the experiment on CCRF-CEM, in the experiment with HCT-116 and in the experiment on HT-29 was > 100 µM (inactive) each time. The GI50 in the experiment with Hs-578T, with KM12, in the experiment with Malme-3M, with OVCAR-3, in the experiment on OVCAR-5 and in the experiment on PC-3 was > 100 µM (inactive) throughout. Further, the GI50 in the experiment on RPMI-8226, in the experiment on RXF 393, in the experiment on SK-MEL-5, in the experiment with SR and in the experiment on UACC-257 was > 100 µM (inactive) in each case.
`CCCCCCNCCCNc1c2ccccc2nc2cccc([N+](=O)[O-])c12`: the GI50 with 786-0 was 0.00948 µM (active); in the experiment with A549, 0.00409 µM (active); with BT-549, 0.11 µM (active); with CCRF-CEM, 0.0229 µM (active); with HCT-116, 0.0352 µM (active); in the experiment on HT-29, 0.00528 µM (active). Also, the GI50 in the experiment on Hs-578T is 0.0448 µM (active); in the experiment with KM12 it was 0.0127 µM (active); in the experiment on Malme-3M it was 0.0206 µM (active); with OVCAR-3 it was 0.0171 µM (active); in the experiment with OVCAR-5, 0.0315 µM (active); in the experiment on PC-3, 0.0163 µM (active). The GI50 is 0.00247 µM (active) with RPMI-8226; 0.0148 µM (active) with RXF 393; 0.0103 µM (active) in the experiment with SK-MEL-5; 0.0256 µM (active) with SR; 0.101 µM (active) in the experiment on UACC-257; 0.0279 µM (active) with UACC-62.
For the molecule `NNc1nnc(-c2nnc(NN)o2)o1`, the GI50 in the experiment with 786-0, with A549, in the experiment on BT-549, with CCRF-CEM, in the experiment on HCT-116 and in the experiment with HT-29 was > 10 µM (inactive) throughout. For the same molecule, the GI50 with Hs-578T, in the experiment on KM12, in the experiment on Malme-3M, in the experiment with OVCAR-3, with OVCAR-5 and in the experiment on PC-3 was > 10 µM (inactive) each time. For the same molecule, the GI50 in the experiment on RPMI-8226, with RXF 393, in the experiment with SK-MEL-5, in the experiment on SR, in the experiment with UACC-257 and with UACC-62 was > 10 µM (inactive) throughout.
On to `CC1OC(O[C@@H]2OC=C(C=O)[C@@]3(O)CC[C@H](C)[C@@H]23)C(O)C(O)C1O` (stereo not given in full), for which the GI50 in the experiment on 786-0, in the experiment on A549, with BT-549, with CCRF-CEM, with HCT-116 and with HT-29 was > 100 µM (inactive) throughout. The GI50 in the experiment on Hs-578T, with KM12, with Malme-3M, in the experiment on OVCAR-3, in the experiment on OVCAR-5 and with PC-3 was > 100 µM (inactive) throughout. Besides, the GI50 in the experiment with RPMI-8226, with RXF 393, in the experiment with SK-MEL-5, with SR, in the experiment on UACC-257 and in the experiment with UACC-62 was > 100 µM (inactive) throughout.
On to `Cc1ccccc1C(=O)N1CCc2c([nH]c3ccccc23)C1`, for which the GI50 in the experiment on 786-0 is 22.9 µM (inactive); in the experiment on A549, 35.9 µM (inactive); in the experiment on BT-549, 18.7 µM (inactive); with CCRF-CEM, 24.8 µM (inactive); in the experiment with HCT-116 it was 17.7 µM (inactive); with HT-29, 18.8 µM (inactive). Further, the GI50 in the experiment with Hs-578T is 29 µM (inactive); with KM12, 25.9 µM (inactive); with Malme-3M, 24.8 µM (inactive); with OVCAR-3 it was 27.5 µM (inactive); in the experiment with OVCAR-5, 19.5 µM (inactive); in the experiment with PC-3, 14 µM (inactive). Moreover, the GI50 is 21.2 µM (inactive) with RPMI-8226; 18.6 µM (inactive) with RXF 393; 15.9 µM (inactive) with SK-MEL-5; 13.7 µM (inactive) in the experiment on SR; 23.9 µM (inactive) with UACC-257; 16 µM (inactive) in the experiment on UACC-62.
Take `CC1CCCN(CC(O)CN2CCCc3ccccc32)C1` (stereo not given): the GI50 was > 100 µM (inactive) in the experiment on 786-0; > 100 µM (inactive) with A549; > 100 µM (inactive) in the experiment on BT-549; > 100 µM (inactive) in the experiment on CCRF-CEM; > 100 µM (inactive) in the experiment on HCT-116; 41.6 µM (inactive) with HT-29. Further, the GI50 was 56.2 µM (inactive) in the experiment on Hs-578T; > 100 µM (inactive) with KM12; > 100 µM (inactive) in the experiment with Malme-3M; > 100 µM (inactive) in the experiment on OVCAR-3; > 100 µM (inactive) in the experiment with OVCAR-5; > 100 µM (inactive) in the experiment with PC-3. For the same molecule, the GI50 in the experiment on RPMI-8226, in the experiment with RXF 393, in the experiment with SK-MEL-5, in the experiment on SR, in the experiment with UACC-257 and with UACC-62 was > 100 µM (inactive) throughout.
Take `CCOC(=O)c1c(N2CCCC2)[nH]c(=O)c(C(c2ccc(N(C)C)cc2)c2c(O)c(C(=O)OCC)c(N3CCCC3)[nH]c2=O)c1O`: the GI50 in the experiment with 786-0 is > 100 µM (inactive); in the experiment with A549 it was > 100 µM (inactive); in the experiment with BT-549, 30.4 µM (inactive); in the experiment with CCRF-CEM, > 100 µM (inactive); in the experiment with HCT-116, > 100 µM (inactive); in the experiment on HT-29, > 100 µM (inactive). In addition, the GI50 in the experiment with Hs-578T, in the experiment with KM12, in the experiment with Malme-3M, with OVCAR-3, in the experiment with OVCAR-5 and in the experiment with PC-3 was > 100 µM (inactive) throughout. The GI50 in the experiment with RPMI-8226, in the experiment with RXF 393, with SK-MEL-5, in the experiment with SR, with UACC-257 and in the experiment with UACC-62 was > 100 µM (inactive) in each case.
On to `CC(C)(C)OC(=O)NCCCCC(NC(=O)OCc1ccccc1)C(N)=O` (stereo not given), for which the GI50 in the experiment on 786-0, in the experiment on A549, in the experiment on BT-549, in the experiment on CCRF-CEM, in the experiment on HCT-116 and in the experiment on HT-29 was > 100 µM (inactive) in each case. The GI50 in the experiment on Hs-578T, in the experiment with KM12, in the experiment on Malme-3M, in the experiment with OVCAR-3, in the experiment with OVCAR-5 and in the experiment on PC-3 was > 100 µM (inactive) throughout. Besides, the GI50 in the experiment with RPMI-8226 was > 100 µM (inactive); in the experiment on RXF 393, > 100 µM (inactive); in the experiment on SK-MEL-5, 58.3 µM (inactive); in the experiment with SR, > 100 µM (inactive); in the experiment on UACC-257, > 100 µM (inactive); in the experiment on UACC-62 it was > 100 µM (inactive).
`COc1ccc(/N=N/c2ccc3oc(=O)c(C(=O)Nc4ccc(OC)cc4)cc3c2)cc1`: the GI50 is 14.1 µM (inactive) in the experiment on 786-0; 31.4 µM (inactive) in the experiment with A549; 4.93 µM (inactive) with BT-549; 4.89 µM (inactive) in the experiment on CCRF-CEM; 11.2 µM (inactive) with HCT-116; 22.6 µM (inactive) in the experiment with HT-29. Moreover, the GI50 is 20.9 µM (inactive) in the experiment with Hs-578T; 13.8 µM (inactive) with KM12; 18.6 µM (inactive) in the experiment with Malme-3M; 19.2 µM (inactive) in the experiment with OVCAR-3; 17.8 µM (inactive) with OVCAR-5; 11 µM (inactive) in the experiment with PC-3. Besides, the GI50 with RPMI-8226 is 16.3 µM (inactive); with RXF 393 it was 27 µM (inactive); in the experiment on SK-MEL-5, 14.9 µM (inactive); in the experiment on SR, 12 µM (inactive); in the experiment with UACC-257, 23.8 µM (inactive).
For `O=[N+]([O-])c1ccc2c(/N=N/c3ccc4ccccc4c3O)c(O)cc(S(=O)(=O)O)c2c1`, the GI50 was 18.7 µM (inactive) in the experiment with 786-0; 40.6 µM (inactive) in the experiment with A549; 25.7 µM (inactive) in the experiment with BT-549; 8.77 µM (inactive) in the experiment on CCRF-CEM; 19.5 µM (inactive) in the experiment on HCT-116; 44.5 µM (inactive) in the experiment with HT-29. Also, the GI50 in the experiment with Hs-578T was 41 µM (inactive); in the experiment on KM12 it was 31.8 µM (inactive); in the experiment on Malme-3M it was 18.3 µM (inactive); with OVCAR-3, 4.89 µM (inactive); in the experiment with OVCAR-5, 15.1 µM (inactive); with PC-3, 18.2 µM (inactive). The GI50 is 17.8 µM (inactive) in the experiment with RPMI-8226; 17.9 µM (inactive) with RXF 393; 15.8 µM (inactive) in the experiment on SK-MEL-5; > 29.3 µM (inactive) with SR; 31.3 µM (inactive) in the experiment on UACC-257; 7.21 µM (inactive) in the experiment with UACC-62.
